Experimental data published in PubChem BioAssay AID588471 (The Scripps Research Institute Molecular Screening Center, 2011).

What was measured:
Assay in all cases: PubChem AID 588471; call rule not given here
[1] = target: Protein-arginine deiminase type-2 (Homo sapiens) (UniProt Q9Y2J8); details: recombinant PAD1-4, BAEE citrulline colorimetric absorbance; PAD2
[2] = target: Protein-arginine deiminase type-4 (Homo sapiens) (UniProt Q9UM07); details: recombinant PAD1-4, BAEE citrulline colorimetric absorbance; PAD4
Sequence of Protein-arginine deiminase type-4 (Homo sapiens) (Q9UM07 whole entry, looked up): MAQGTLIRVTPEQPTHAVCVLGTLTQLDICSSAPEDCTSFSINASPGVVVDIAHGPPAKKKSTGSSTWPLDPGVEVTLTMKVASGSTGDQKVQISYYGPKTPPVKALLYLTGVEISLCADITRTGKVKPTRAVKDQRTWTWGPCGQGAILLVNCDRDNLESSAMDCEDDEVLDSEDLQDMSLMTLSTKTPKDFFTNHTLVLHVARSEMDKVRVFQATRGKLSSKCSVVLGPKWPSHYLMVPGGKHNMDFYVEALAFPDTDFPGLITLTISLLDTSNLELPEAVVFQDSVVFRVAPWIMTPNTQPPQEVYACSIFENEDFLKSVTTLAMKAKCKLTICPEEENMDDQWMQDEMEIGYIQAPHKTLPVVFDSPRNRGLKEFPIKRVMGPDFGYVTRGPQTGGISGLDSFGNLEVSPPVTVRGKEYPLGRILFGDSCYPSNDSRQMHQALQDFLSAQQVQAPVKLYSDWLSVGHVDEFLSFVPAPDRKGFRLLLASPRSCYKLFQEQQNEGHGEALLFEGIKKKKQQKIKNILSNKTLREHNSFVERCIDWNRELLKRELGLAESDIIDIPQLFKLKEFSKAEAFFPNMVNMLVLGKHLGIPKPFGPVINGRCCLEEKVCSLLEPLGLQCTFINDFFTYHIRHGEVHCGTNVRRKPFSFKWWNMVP

[3] = target: Protein-arginine deiminase type-1 (Homo sapiens) (UniProt Q9ULC6); details: recombinant PAD1-4, BAEE citrulline colorimetric absorbance; PAD1
Sequence of Protein-arginine deiminase type-1 (Homo sapiens) (Q9ULC6 whole entry, looked up): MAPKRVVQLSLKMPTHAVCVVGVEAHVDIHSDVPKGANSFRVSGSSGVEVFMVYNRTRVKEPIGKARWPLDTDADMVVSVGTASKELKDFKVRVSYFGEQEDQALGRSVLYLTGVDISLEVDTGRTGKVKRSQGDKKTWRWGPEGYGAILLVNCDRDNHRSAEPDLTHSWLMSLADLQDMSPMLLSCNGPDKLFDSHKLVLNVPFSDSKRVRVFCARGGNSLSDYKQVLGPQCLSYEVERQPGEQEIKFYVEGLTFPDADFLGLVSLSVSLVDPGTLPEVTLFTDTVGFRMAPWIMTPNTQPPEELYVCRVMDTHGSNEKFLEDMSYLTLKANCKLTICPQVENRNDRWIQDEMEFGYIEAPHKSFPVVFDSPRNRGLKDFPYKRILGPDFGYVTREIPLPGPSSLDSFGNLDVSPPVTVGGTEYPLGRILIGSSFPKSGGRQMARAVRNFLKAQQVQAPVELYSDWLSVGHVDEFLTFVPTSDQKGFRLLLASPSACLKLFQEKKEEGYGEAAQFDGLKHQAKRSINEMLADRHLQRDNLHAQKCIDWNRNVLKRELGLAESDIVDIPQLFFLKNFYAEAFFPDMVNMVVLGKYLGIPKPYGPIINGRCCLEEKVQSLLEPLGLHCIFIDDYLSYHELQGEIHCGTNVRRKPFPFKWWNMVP

[4] = target: Protein-arginine deiminase type-3 (Homo sapiens) (UniProt Q9ULW8); details: recombinant PAD1-4, BAEE citrulline colorimetric absorbance; PAD3
Sequence of Protein-arginine deiminase type-3 (Homo sapiens) (Q9ULW8 whole entry, looked up): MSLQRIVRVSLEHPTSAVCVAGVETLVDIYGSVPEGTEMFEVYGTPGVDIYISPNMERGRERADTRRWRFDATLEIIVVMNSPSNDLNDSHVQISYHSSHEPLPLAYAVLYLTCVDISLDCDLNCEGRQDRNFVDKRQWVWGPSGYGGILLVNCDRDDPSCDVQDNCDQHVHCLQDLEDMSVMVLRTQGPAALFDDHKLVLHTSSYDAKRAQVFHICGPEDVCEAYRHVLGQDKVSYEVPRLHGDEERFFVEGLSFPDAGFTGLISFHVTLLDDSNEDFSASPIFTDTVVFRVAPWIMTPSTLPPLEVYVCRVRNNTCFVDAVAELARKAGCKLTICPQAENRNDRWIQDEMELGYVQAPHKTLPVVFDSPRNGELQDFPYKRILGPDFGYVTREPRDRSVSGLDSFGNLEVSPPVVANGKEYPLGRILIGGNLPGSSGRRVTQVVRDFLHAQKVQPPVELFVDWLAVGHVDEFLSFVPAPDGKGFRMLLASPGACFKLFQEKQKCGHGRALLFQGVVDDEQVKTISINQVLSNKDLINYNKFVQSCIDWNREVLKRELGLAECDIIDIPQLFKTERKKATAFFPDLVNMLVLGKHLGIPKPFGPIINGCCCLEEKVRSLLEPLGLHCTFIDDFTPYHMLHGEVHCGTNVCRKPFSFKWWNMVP

Measured: IC50

Sequence of Protein-arginine deiminase type-2 (Homo sapiens) (Q9Y2J8 whole entry, looked up): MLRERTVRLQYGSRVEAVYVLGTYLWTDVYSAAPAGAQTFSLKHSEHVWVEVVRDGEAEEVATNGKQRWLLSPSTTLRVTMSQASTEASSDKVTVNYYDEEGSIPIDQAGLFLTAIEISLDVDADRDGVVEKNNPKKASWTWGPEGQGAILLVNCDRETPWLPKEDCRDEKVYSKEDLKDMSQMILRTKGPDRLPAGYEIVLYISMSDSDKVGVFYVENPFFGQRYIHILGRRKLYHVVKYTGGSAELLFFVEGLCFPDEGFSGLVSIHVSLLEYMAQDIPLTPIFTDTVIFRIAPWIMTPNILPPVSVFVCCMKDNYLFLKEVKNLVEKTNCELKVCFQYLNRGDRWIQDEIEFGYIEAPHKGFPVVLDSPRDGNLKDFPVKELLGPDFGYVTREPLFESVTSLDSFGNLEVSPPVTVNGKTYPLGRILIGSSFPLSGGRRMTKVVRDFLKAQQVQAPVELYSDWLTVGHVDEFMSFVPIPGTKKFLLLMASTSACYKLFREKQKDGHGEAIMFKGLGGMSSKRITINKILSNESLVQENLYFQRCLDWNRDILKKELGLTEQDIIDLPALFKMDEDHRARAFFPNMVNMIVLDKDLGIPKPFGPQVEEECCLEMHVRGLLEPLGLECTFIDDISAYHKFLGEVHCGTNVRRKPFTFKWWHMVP

NC1=CC(=O)c2ccc(-c3ccccn3)nc2C1=O
active: [1] 320 nM | [2] 640 nM | [3] 950 nM | [4] 130 nM
